Measured values reported in patent publication EP0252983B1, “SALTS OF N-(VINYLOXIETHYL)DITHIOCARBAMIC ACID, METHOD OF OBTAINING THEREOF AND […] ON THEM” (priority 1985, dated 1987).

Legend:
[1] = tested on: Wurzelschimmelkomplex von Gewächshausgurken; test: Greenhouse trial against cucumber root mould complex (200 m^2); format: in vivo
Excerpt: Kalium-N-(vinyloxyäthyl)dithiocarbamat wurde gegen Wurzelschimmelkomplex von Gewächshausgurken auf einer Fläche von 200 m^2 und 1 ha geprüft. Die auf einer 200 m^2 großen Fläche durchgeführten Prüfungen haben gezeigt, daß Kalium-N-(vinyloxyäthyl)dithiocarbamat die 100%ige Unterdrückung von Erregern der Pythium-Fäule und der begleitenden Gurkenwurzelschimmeln bewirkt. Der Ernteertrag steigt dabei durch Bodenbehandlung um 4,2 kg/m^2 gegenüber Kontrolle (ohne Wirkstoffgabe ist der Ertrag 10 kg/m^2 und um 1,6 kg/m^2 gegenüber Fundazol an.

[2] = tested on: Geotrichum candidum Link; test: Mycelial growth inhibition on agar (contact activity); format: cell-based; settings: Würzeagar
[3] = tested on: Walrotiela subiculesa; test: as above; format: cell-based; settings: 120 h, Würzeagar, read-out: Myzelhemmung in %
[4] = tested on: Penicillium chrysogenum; test: as above; format: cell-based; settings: Würzeagar
[5] = tested on: Oidium Sp.; test: as above; format: cell-based; settings: Würzeagar
[6] = tested on: Acremonium cowum; test: as above; format: cell-based; settings: 120 h, Würzeagar, read-out: Myzelhemmung in %
[7] = tested on: Penicillium charlesii; test: as above; format: cell-based; settings: Penicillium charlesii, 120 h, Würzeagar, read-out: Myzelhemmung in %
[8] = tested on: Cladosporium resinae; test: as above; format: cell-based; settings: Amorphotheca resinae, 120 h, Würzeagar, read-out: Myzelhemmung in %
[9] = tested on: Acremonium charticola; test: as above; format: cell-based; settings: Acremonium charticola, 120 h, Würzeagar, read-out: Myzelhemmung in %
[10] = tested on: Cladosporium cladosporioides; test: as above; format: cell-based; settings: Cladosporium cladosporioides, 120 h, Würzeagar, read-out: Myzelhemmung in %
[11] = Acute toxicity (LD50) in mice; format: in vivo, weißen Mäusen; settings: mouse, in vivo, po; perorale Applikation an weißen Mäusen; read-out: LD50
[12] = tested on: Cladosporium cladosporioides; test: Mycelial growth inhibition on agar (contact activity); format: cell-based; settings: Cladosporium cladosporioides, 120 h; Präparatkonzentration 0,006 %; Würzeagar; read-out: Myzelhemmung in %
[13] = tested on: Larven von Fichtenböcken; test: Insecticidal activity, topical application to larvae; format: in vivo, Fichtenböcke; settings: 10%ige Lösung
Excerpt: Die hohe insektizide Aktivität von Kalium-N-(vinyloxyathyl)dithiocarbamat und Zink-bis-(N-vinyloxyathyl- dithiocarbamat) wurde in Versuchen an Larven von Fichtenböcken nachgewiesen. Geprüft wurden die 10%igen wäßrigen (oder alkoholischen) Lösungen, welche auf die Kopfbrust von Larven aufgebracht wurden. In Versuchen standen je 20 Larven zur Verfügung. Die Versuche wurden dreimal wiederholt. Die Mortalität wurde nach 1, 24 und 48 Stunden ermittelt. Die insektizide Aktivität der erfindungsgemäßen Stoffe ist bedeutend höher als die von Chlorophos.
Die Prüfungen auf insektizide Aktivität werden an Larven von Fichtenböcken durchgeführt. Geprüft werden eine 10%ige wäßrige Lösung von Kalium-N-(vinyloxyäthyl)dithiocarbamat und eine 10%ige alkoholische Lösung von Zink-bis-N-(vinyloxyathyldithiocarbamat). In jedem Versuch stehen je 20 Larven zur Verfügung. Die Mortalität wird nach 1, 24 und 48 Stunden ermittelt. Die zu prüfenden Lösungen werden auf die Kopfbrust von Larven aufgebracht.

[14] = tested on: Helminthosporium sativum; test: Barley seed dressing against root rot (helminthosporiosis); format: in vivo; settings: Aufwandmenge von 1 g/kg
Protocol: Die Aktivität der Verbindung gegen Wurzelfäule (Helminthosporiose) der Gerste wurde unter Laborbedingungen untersucht. Gerstensamen, infiziert mit einer 7 Tage alten Pizkultur Helminthosporium sativum, wurden durch Präparaten ausgehend von 1 g Präparat (bezogen auf den Wirkstoff) je 1 kg Samen nach einem halbtrockenen Verfahren gebeizt, in Aufzuchträume mit befeuchtetem Sand gesät und innerhalb von 11 bis 14 Tagen bei einer zwischen 20 und 22 °C gehalten. Am 14 Tag schätzte man die Keimfähigkeit von Gerstensamen ein und ermittelte die Quote von durch Helminthosporiose befallenen Pflanzen. Die Prüfergebnisse sind in der Tabelle 4 dargestellt.

With `C=COCCNC(=S)S` [Kalium-N-(vinyloxyäthyl)dithiocarbamat] the “Unterdrückung von Erregern der Pythium-Fäule und der begleitenden Gurkenwurzelschimmeln” value ([1]; 200 m^2 große Fläche) was 100%, the “Ernteertrag steigt gegenüber Fundazol” value ([1]; Bodenbehandlung, 200 m^2) was 1,6 kg/m^2 and the “Ernteertrag steigt gegenüber Kontrolle” value ([1]; Bodenbehandlung, 200 m^2, Kontrolle 10 kg/m^2) was 4,2 kg/m^2. For the same molecule, the inhibition of growth at 0.012 % ([2]; Geotrichum candidum, 120 h, Präparatkonzentration 0,012 %, read-out: Myzelhemmung in %) was 100%, the Myzelhemmung in % ([2]; Präparatkonzentration 0,0015 %) was 30% and the Myzelhemmung in % ([2]; Präparatkonzentration 0,003 %) was 100%. For the same molecule, the Myzelhemmung in % ([2]; Präparatkonzentration 0,006 %) was 100%, the inhibition of growth at 0.0015 % ([3]; Präparatkonzentration 0,0015 %) was 100% and the inhibition of growth at 0.003 % ([3]; Präparatkonzentration 0,003 %) was 100%. The inhibition of growth at 0.006 % ([3]; Präparatkonzentration 0,006 %) was 100%, the inhibition of growth at 0.012 % ([3]; Präparatkonzentration 0,012 %) was 100% and the inhibition of growth at 0.003 % ([4]; Penicillium chrysogenum, 120 h, Präparatkonzentration 0,003 %, read-out: Myzelhemmung in %) was 26%. The inhibition of growth at 0.006 % ([4]; Penicillium chrysogenum, 120 h, Präparatkonzentration 0,006 %, read-out: Myzelhemmung in %) was 93%, the inhibition of growth at 0.012 % ([4]; Penicillium chrysogenum, 120 h, Präparatkonzentration 0,012 %, read-out: Myzelhemmung in %) was 100% and the Myzelhemmung in % ([4]; Präparatkonzentration 0,0015 %) was 15%. The inhibition of growth at 0.003 % ([5]; 120 h, Präparatkonzentration 0,003 %, read-out: Myzelhemmung in %) was 100%, the inhibition of growth at 0.006 % ([5]; 120 h, Präparatkonzentration 0,006 %, read-out: Myzelhemmung in %) was 100% and the inhibition of growth at 0.012 % ([5]; 120 h, Präparatkonzentration 0,012 %, read-out: Myzelhemmung in %) was 100%. The Myzelhemmung in % ([5]; Präparatkonzentration 0,0015 %) was 96%, the inhibition of growth at 0.0015 % ([6]; Präparatkonzentration 0,0015 %) was 100% and the inhibition of growth at 0.012 % ([6]; Präparatkonzentration 0,012 %) was 100%. For the same molecule, the inhibition of growth at 0.0015 % ([7]; Präparatkonzentration 0,0015 %) was 30%, the inhibition of growth at 0.003 % ([7]; Präparatkonzentration 0,003 %) was 55% and the inhibition of growth at 0.006 % ([7]; Präparatkonzentration 0,006 %) was 90%. It also gave an inhibition of growth at 0.012 % ([7]; Präparatkonzentration 0,012 %) of 100%, an inhibition of growth at 0.0015 % ([8]; Präparatkonzentration 0,0015 %) of 100% and an inhibition of growth at 0.003 % ([8]; Präparatkonzentration 0,003 %) of 100%. For the same molecule, the inhibition of growth at 0.006 % ([8]; Präparatkonzentration 0,006 %) was 100%, the inhibition of growth at 0.012 % ([8]; Präparatkonzentration 0,012 %) was 100% and the inhibition of growth at 0.003 % ([9]; Präparatkonzentration 0,003 %) was 100%. The inhibition of growth at 0.006 % ([9]; Präparatkonzentration 0,006 %) was 100%, the inhibition of growth at 0.012 % ([9]; Präparatkonzentration 0,012 %) was 100% and the inhibition of growth at 0.0015 % ([10]; Präparatkonzentration 0,0015 %) was 100%. The inhibition of growth at 0.003 % ([10]; Präparatkonzentration 0,003 %) was 100%, the inhibition of growth at 0.012 % ([10]; Präparatkonzentration 0,012 %) was 100% and the LD50 [11] was 1400 ± 350 mg/kg. For the same molecule, the inhibition of growth at 0.006 % [12] was 100%, the “Mortalität von Larven der Fichtenböcke” value ([13]; Wirkungsdauer 1 Stunde) was 20% and the “Mortalität von Larven der Fichtenböcke” value ([13]; Wirkungsdauer 24 Stunden) was 100%. The “Mortalität von Larven der Fichtenböcke” value ([13]; Wirkungsdauer 48 Stunden) was 100% and the “Wirksamkeit als Beizmittel gegenüber Vergleichsmuster (TMTD und Polykarbazin)” value [14] was “zweimal wirksamer”.
